Laboratory results from patent US11780850B2, “Purification of rapamycin derivatives using temperature induced phase separation” (Biosensors International Group, Ltd., priority 2013, dated 2023).

Key:
[1] = Oxidation study, exposure to 30% H2O2; type: physicochemical; details: 30% H2O2 for 3 hours; for weight loss after oxidative degradation (relative to a control sample): assay measurement
Text: It is therefore apparent that amorphous BA9 is more susceptible to oxidative degradation.

[2] = Photolysis study per ICH Q1B (photostability); details: for Major Degradants, % (RT 4.2 min): HPLC RT 4.2 min; for Major Degradants, % (RT 4.5 min): HPLC RT 4.5 min; for Major Degradants, % (RT 4.9 min): HPLC RT 4.9 min; for Major Degradants, % (RT 6.2 min): HPLC RT 6.2 min; for Major Degradants, % (RT 7.9 min): HPLC RT 7.9 min; for Major Degradants, % (RT 10.4 min): HPLC RT 10.4 min; for Major Degradants, % (RT 10.7 min): HPLC RT 10.7 min; for Major Degradants, % (RT 11.0 min): HPLC RT 11.0 min
Method: Photolysis studies were performed on amorphous and crystalline BA9 (i.e, Form I).

[3] = Dark Control, storage at standard laboratory temperature without light; details: for Major Degradants, % (RT 4.5 min): HPLC RT 4.5 min; for Major Degradants, % (RT 4.9 min): HPLC RT 4.9 min; for Major Degradants, % (RT 6.2 min): HPLC RT 6.2 min; for Major Degradants, % (RT 10.4 min): HPLC RT 10.4 min; for Major Degradants, % (RT 10.7 min): HPLC RT 10.7 min; for Major Degradants, % (RT 11.0 min): HPLC RT 11.0 min; for Purity Assay, %: standard laboratory temperature, no light, duration of the study
[4] = Dynamic vapor sorption (DVS) experiment; type: physicochemical
Method: Batch profiling and polymorph screening methods. BA9 Lots 2A and 2B were purified using precipitation from n-hexanes as described above. After the purification process, Lot 2A (82.9 g) was dissolved in methanol (190 g) and precipitated by adding the methanol solution to water. The combined methanolic solution was transferred to an addition funnel and then slowly charged within 1 hour and 15 minutes into vigorously stirred water for injection (2.18 kg) in a reactor at a temperature range of 0-5° C. After completion of the addition of the methanolic solution of BA9, the resulting white suspension was stirred for an additional 15 minutes at the same temperature range. The precipitated BA9 was isolated in 84.8% yield (purity was 96.3% as determined by HPLC). The suspension was then filtered, and the isolated white solid was washed on the filter. Lot 2A was characterized by XRPD and DSC and Lot 2B was characterized by XRPD, DSC, optical microscopy, and infrared (IR) spectroscopy.
A DVS experiment was run on Lot 2B. The increase in mass of the sample was ˜0.5% at 90% RH.

[5] = Photolysis - VIS/UV, minimum 1.2 million lux hours and not less than 200 W·hours/m^2 per ICH Q1B

weight loss after oxidative degradation (relative to a control sample) [1] | Major Degradants, % (RT 4.2 min) ([2]; Photolysis - VIS/UV) | Major Degradants, % (RT 4.5 min) ([2]; Photolysis - VIS/UV) | Major Degradants, % (RT 4.9 min) ([2]; Photolysis - VIS/UV) | Major Degradants, % (RT 6.2 min) ([2]; Photolysis - VIS/UV) | Major Degradants, % (RT 7.9 min) ([2]; Photolysis - VIS/UV) | Major Degradants, % (RT 10.4 min) ([2]; Photolysis - VIS/UV) | Major Degradants, % (RT 10.7 min) ([2]; Photolysis - VIS/UV) | Major Degradants, % (RT 11.0 min) ([2]; Photolysis - VIS/UV) | Purity Assay, % [2, 5] | Purity Assay, % ([2]; T = 0 Control) | Major Degradants, % (RT 4.5 min) [3] | Major Degradants, % (RT 4.9 min) [3] | Major Degradants, % (RT 6.2 min) [3] | Major Degradants, % (RT 10.4 min) [3] | Major Degradants, % (RT 10.7 min) [3] | Major Degradants, % (RT 11.0 min) [3] | Purity Assay, % [3] | further results | SMILES
6.5% | 1.30% | 7.40% | 1.20% | 2.50% | 2.20% | 1.70% | 0.94% | 2.60% | 16.3% | 98.0% | 0.72% | 0.31% | 0.20% | 0.44% | 1.40% | 0.39% | 88.2% | Purity Assay, % ([2]; Photolysis - VIS/UV, minimum 1.2 million lux hours and not less than 200 W·hours/m^2 per ICH Q1B, listed as amorphous BA9): 16.3%; Purity Assay, % ([3]; listed as amorphous BA9): 88.2% | CCOCCOC1CCC(CC(C)C2CC(=O)C(C)C=C(C)C(O)C(OC)C(=O)C(C)CC(C)C=CC=CC=C(C)C(OC)CC3CCC(C)C(O)(O3)C(=O)C(=O)N3CCCCC3C(=O)O2)CC1OC (centres unmarked) [Amorphous BA9, 40-O-(2-ethoxyethyl) rapamycin]
3.4% | 0.76% | 2.00% | 2.60% | 0.94% | 0.07% | 0.15% | 0.69% | 0.51% | 70.2% | 97.7% | 0.08% | 0.41% | 0.09% | 0.03% | 0.06% | 0.67% | 98.0% | levels of major degradants after oxidative degradation (vs amorphous BA9) ([1]; HPLC): lower levels of major degradants overall; solid form of post DVS sample by XRPD ([4]; after DVS experiment): confirmed as Form I; increase in mass of the sample ([4]; at 90% RH): ~0.5%; Purity Assay, % ([2]; Photolysis - VIS/UV, minimum 1.2 million lux hours and not less than 200 W·hours/m^2 per ICH Q1B, listed as crystalline BA9): 70.2%; Major Degradants, % (RT 4.2 min) ([3]; HPLC RT 4.2 min): 0.01%; Purity Assay, % ([3]; listed as crystalline BA9): 98.0% | CCOCCOC1CCC(CC(C)C2CC(=O)C(C)C=C(C)C(O)C(OC)C(=O)C(C)CC(C)C=CC=CC=C(C)C(OC)CC3CCC(C)C(O)(O3)C(=O)C(=O)N3CCCCC3C(=O)O2)CC1OC (centres unmarked) [Crystalline BA9, 40-O-(2-ethoxyethyl) rapamycin]
